The text below walks through data of paper PMC8845285, “Serotoninergic receptor ligands improve Tamoxifen effectiveness on breast cancer cells” (BMC Cancer, 2022).

Holding throughout (format): cell-based, human
Assay [1] deals with MCF7-R cells. Briefly: Tamoxifen-resistant MCF7-R cell viability, sulforhodamine B assay. Conditions: SER 20 μM; for effect on MCF7-R cells if used alone (viability): E2 100 nM, 72 h; for effect on viability of MCF7-R cells in co-treatment with Tamoxifen: Tamoxifen 5 μM, E2, 72 h. How it is done: (§1) Cells were fixed with 50% trichloroacetic acid for at least 2 h at 4 °C, washed with distilled and de-ionized water, air-dryed and stained 30 min with 0.4% sulforhodamine B in 1% acetic acid. Unbound dye was removed and 10 mM tris-HCl solution (pH 7.5) was added to dissolve the protein-bound dye. Cell survival was assessed by optical density determination at 510 nm using a microplate reader.
MCF7 cells were cultured for 4 months in phenol-red free medium supplemented with 10% (C/S) FBS and continuously exposed to Tamoxifen (1 μM). […] To further validate the degree of drug resistance, the expression levels of ABCC1, ABCG1 and ABCG2 – members of ABC transporter family known as involved in multi-drug resistance – were evaluated by Quantitative Real-Time PCR (qPCR; see below) upon cell treatment with 5 μM Tamoxifen for 72 h.
Fig. 9 Effect of SER79 and SER68 on Tamoxifen-resistant (MCF7-R) cells. a Estrogen starved MCF7-R were treated with SER79 (20 μM, 5 μM) or SER68 (20 μM) in presence of E2 (100 nM). b Estrogen-starved MCF7-R were treated with Tamoxifen (5 μM) in presence of E2 and SER79 (20 μM) or SER68 (20 μM). a,b As positive control, the cells were treated with E2 alone, in absence or in presence of SER (dotted line). After 72 h, cell viability was assessed by sulforhodamine B assay (see Methods). The results were reported as percentage of viable cells compared to positive control, considered as maximum viability (100%). c mRNA levels of CTGF were determined by qPCR (see Methods and Table 1) in MCF7-R cells upon treatment with SER68 (20 μM). Data were normalized on Ribosomal Protein S23 (Rps23) gene as internal standard and reported as CTGF mRNA levels in MCF7-R. a-c Graphs represent the mean ± SD of at least three independent triplicate experiments. * denotes statistically significant values compared with (b) positive control or (c) MCF7 cells (*adjp<0.05; **adjp<0.001). # denotes statistically significant values compared with untreated MCF7-R (#pval<0.05) […]
Figure S3. Establishment of MCF7 Tamoxifen re sista n t(M C F7-R) cells. MCF7 cells were cultured with Tamoxifen (1µM), in absence of E2, for 4 months (M C F7-R). (a-b) MCF7 and MCF7-R cells were treated with in c re a s in gconcentration of Tamoxifen […]
As positive control, cells were treated with E2 alone. Cell viability was measured by sulforhodamine B assay (se e Methods). The re su ltswere re p o rte das percentage of viable cells compared to untreated cells, considered as maximum viability (100%). […]
(a ) * denotes statistically significant values compared with untreated cells […]
(1 picture or pasted object on this page, not shown here)

Assay [2] concerns MDA-MB231 cells. As to the kind of experiment: MDA-MB231 cell viability, sulforhodamine B assay. Conditions: for inhibition of MDA-MB231 cell growth: 100 μM, 72 h; for IC50: Homo sapiens, MDA-MB-231, 72 h treatment. How it is done: MCF7 (ER^+, PR^+, HER2^−), SKBR3 (ER^−, PR^+, HER2^+) and MDA-MB231 (ER^−, PR^−, HER2^−) human BC cells and MCF10A non-cancer breast epithelial cells were available in our laboratory. MCF7, SKBR3 and MDA-MB231 cells were cultured in DMEM, supplemented with 10% FBS, 2 mM glutamine, 100 units/ml penicillin and 100 units/ml streptomycin. MCF10A cells were cultured in MEBM, supplemented with 0.4% BPE, 0.1% hEGF, 0.1%, Insulin, 0.1% Hydrocortisone and 0.1% GA-1000. […] Treatment with SER were carried out in culture conditions. Treatment with Tamoxifen and/or SER were carried out upon 48 h estrogen starvation in phenol-red free medium supplemented with 10% Charcoal Stripped (C/S) FBS, 2 mM glutamine, 100 units/ml penicillin and 100 units/ml streptomycin.
as §1
Cell viability was assessed, after 72 h, by sulforhodamine B assay (see Methods).

In assay [3] the test system is Tamoxifen-cultured MCF7 cells. Briefly: Tamoxifen-cultured MCF7 cell viability, sulforhodamine B assay. Conditions: E2 100 nM, 72 h; for further reduction of viability elicited by Tamoxifen in presence of SER: Tamoxifen 5 μM, Tamoxifen-cultured MCF7. As to the method: as §1
To further investigate the effect of SER79 and SER68 on Tamoxifen responsiveness and CTGF expression in MCF7 cells, we obtained - by a continuous treatment of 10 days with 1 μM Tamoxifen – a cellular model less sensitive to the drug (Tamoxifen-cultured MCF7). We observed that 20 μM SER79, 20 μM and 40 μM SER68, while not 5 μM SER79, reduced viability of Tamoxifen-cultured MCF7 cells by about 40% (adjp<0.01; Fig. 8a). […] However, in the presence of 20 μM SER79, 20 μM and 40 μM SER68, Tamoxifen elicited a further 40% reduction of viability, similar to that achieved in Tamoxifen-responsive MCF7 cells (adjp<0.01; Fig. 8b).
Fig. 8 Effect of SER79 and SER68 on Tamoxifen-cultured MCF7 cells. MCF7 cells were cultured in presence of Tamoxifen (1 μM) for 10 days. Estrogen-starved MCF7 and Tamoxifen-cultured MCF7 cells (48 h) were (a-c) treated with SER79 (20 μM, 5 μM) or SER68 (40 μ, 20 μM), (b) treated with Tamoxifen (5 μM) in presence of SER79 (20 μM, 5 μM) or SER68 (40 μM, 20 μM). All treatments were carried out in presence of E2 (100 nM) for 72 h. As positive control, the cells were treated with (a-c) E2 alone or (b) E2 in absence or in presence of SER (as indicated, dotted line). a,b Cell viability was assessed by sulforhodamine B assay (see Methods). The results were reported as percentage of viable cells compared to positive control, considered as maximum viability (100%). c mRNA levels of CTGF were determined by qPCR (see Methods and Table 1). Data were normalized on Ribosomal Protein S23 (Rps23) gene as internal standard and reported as CTGF mRNA levels in Tamoxifen-cultured MCF7 relative to those in MCF7 cells (dotted line). a-c Graphs represent the mean ± SD of at least three independent triplicate experiments. * denotes statistically significant values compared with (a,b) positive control (*adjp<0.05, ** adjp<0.01) or (c) MCF7 cells (*pval<0.05); # denotes statistically significant values compared with (b) cells treated with Tamoxifen in absence of SER or (c) untreated Tamoxifen-cultured MCF7 cells (#pval<0.01, ##pval<0.0001)

As to `N#CN=C(NCCCN1CCN(C(c2ccc(F)cc2)c2ccc(F)cc2)CC1)c1ccccn1` [SER79], in assay [1], the “effect on MCF7-R cells if used alone (viability)” value is listed as “neither” and the “effect on viability of MCF7-R cells in co-treatment with Tamoxifen” value is listed as “No significant effect”. Besides, in assay [2], the “inhibition of MDA-MB231 cell growth” value was “able to inhibit” and the IC50 came to 117 µM. Further, in assay [3] (SER 5 μM), the “further reduction of viability elicited by Tamoxifen in presence of SER” value (from here on “further reduction of viability elicited”) is on record as “No Tamoxifen effect was observed”. The “reduction of viability of Tamoxifen-cultured MCF7 cells” value in assay [3] (SER 20 μM alone) is reported as “about 40%”. In addition, the “further reduction of viability elicited” value in assay [3] (SER 20 μM) is 40%.

Consider `O=C1C2C3C=CC(C3)C2C(=O)N1OCCN1CCN(c2ccc(Cl)c(Cl)c2)CC1` (stereo not drawn) [SER68], for which, in assay [1], the “effect on MCF7-R cells if used alone (viability)” value is given as “neither”. The “effect on viability of MCF7-R cells in co-treatment with Tamoxifen” value in assay [1] was “significantly reduced viability”. The “inhibition of MDA-MB231 cell growth” value in assay [2] is on record as “able to inhibit”. Moreover, half-maximal inhibition in assay [2] (IC50) was put at 171 ± 37.3 µM. Besides, the “reduction of viability of Tamoxifen-cultured MCF7 cells” value in assay [3] (SER 20 μM alone) and in assay [3] (SER 40 μM alone) was “about 40%” each time. In addition, the “further reduction of viability elicited” value in assay [3] (SER 20 μM) and in assay [3] (SER 40 μM) was 40% each time.
